In the supplement of paper PMC8882468:

Tests used:
Assay in all cases: CTG-3D luminescence at 96 h relative to day-0 seeding control (ratio to day 0); higher = more growth / less cytotoxicity
HCI-003.E2 = test system: HCI-003.E2 (organoid from an ER-positive breast cancer xenograft)
Experimental: (§1)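 PDxO 3D drug screen (set 2), 8-point dose, 96 h; CTG-3D luminescence normalised to day-0 seeding control (mean of 4 wells each).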

HCI-012 = test system: HCI-012 (organoid from a breast cancer xenograft)
Experimental: as §1

HCI-015 = test system: HCI-015 (organoid from a triple-negative breast cancer xenograft)
Experimental: as §1

HCI-023 = test system: HCI-023 (organoid from a triple-negative breast cancer xenograft)
Experimental: as §1

HCI-027 = test system: HCI-027 (organoid from a triple-negative breast cancer xenograft)
Experimental: as §1

CC/C(=C(\c1ccc(O)cc1)c1ccc(OCCN(C)C)cc1)c1ccccc1 [4-hydroxytamoxifen]
HCI-003.E2
Settings	CTG-3D luminescence at 96 h
12.5 pM	2.27
0.00025 µM	2.32
0.005 µM	2.33
0.1 µM	2.5
1 µM	1.94
10 µM	1.18
100 µM	0.0128
625 fM	2.7

CTG-3D luminescence at 96 h
Settings	12.5 pM	0.00025 µM	0.005 µM	0.1 µM	1 µM	10 µM	100 µM	625 fM
HCI-012, days in culture: 214	3.56	3.14	1.65	2.13	2.18	0.301	0.00686	1.93
HCI-012, days in culture: 243	2.35	2.75	1.8	2.23	1.49	1.87	0.00753	2.29
HCI-012, days in culture: 256	1.59	1.79	2.4	3.03	2.03	1.01	-0.000283	2.33
HCI-012, days in culture: 284	2.11	2.32	1.6	2.02	1.71	1.47	0.00771	3.35
HCI-015, days in culture: 333	1.04	1.94	1.26	1.29	1.39	0.469	0.0144	2.19
HCI-015, days in culture: 355	3.76	3.54	1.5	2.75	0.935	1.57	0.00605	1.84
HCI-015, days in culture: 369	2.01	1.59	2.11	1.32	1.19	0.943	0.00584	1.66
HCI-023, days in culture: 223	2.56	1.54	1.73	1.73	1.16	1.64	0.0104	2.1
HCI-023, days in culture: 238	1.29	1.34	1.35	1.29	1.4	1.46	0.00895	1.43
HCI-023, days in culture: 252	2.34	1.72	1.66	1.88	1.73	1.63	0.00241	1.66
HCI-027, days in culture: 145	1.3	2.12	1.24	1.83	1.18	0.699	0.00408	1.73
HCI-027, days in culture: 158	2.04	2.76	2.17	2.08	1.97	1.36	0.00947	4.26
HCI-027, days in culture: 164	1.94	2.01	1.46	2.16	1.19	1.86	0.0151	1.7
HCI-027, days in culture: 176	3.64	3.33	1.45	1.08	2.78	0.382	0.00762	2.5
HCI-027, days in culture: 186	1.39	2.63	2.25	1.45	0.447	0.154	0.0028	2.27
